Test results: ChEMBL document CHEMBL5465560, “Selectivity Literature for EUbOPEN Chemogenomic Library” (2024)
One block for each compound: values may come before it.

How the values were obtained:
Conditions in all cases: at 10 µM
[1] = molecular target: Macrophage colony-stimulating factor 1 receptor (Homo sapiens) (UniProt P07333); assay: Selectivity interaction (KinomeScan (DiscoverX)) EUB0000699a CSF1R
[2] = molecular target: Casein kinase I isoform delta (Homo sapiens, UniProt P48730); assay: Selectivity interaction (KinomeScan (DiscoverX)) EUB0000595a CSNK1D
[3] = molecular target: T1, Mitogen-activated protein kinase kinase kinase 12 (Homo sapiens) (UniProt Q12852); assay: Selectivity interaction (KinomeScan (DiscoverX)) EUB0000655a MAP3K12
T1 sequence (whole entry): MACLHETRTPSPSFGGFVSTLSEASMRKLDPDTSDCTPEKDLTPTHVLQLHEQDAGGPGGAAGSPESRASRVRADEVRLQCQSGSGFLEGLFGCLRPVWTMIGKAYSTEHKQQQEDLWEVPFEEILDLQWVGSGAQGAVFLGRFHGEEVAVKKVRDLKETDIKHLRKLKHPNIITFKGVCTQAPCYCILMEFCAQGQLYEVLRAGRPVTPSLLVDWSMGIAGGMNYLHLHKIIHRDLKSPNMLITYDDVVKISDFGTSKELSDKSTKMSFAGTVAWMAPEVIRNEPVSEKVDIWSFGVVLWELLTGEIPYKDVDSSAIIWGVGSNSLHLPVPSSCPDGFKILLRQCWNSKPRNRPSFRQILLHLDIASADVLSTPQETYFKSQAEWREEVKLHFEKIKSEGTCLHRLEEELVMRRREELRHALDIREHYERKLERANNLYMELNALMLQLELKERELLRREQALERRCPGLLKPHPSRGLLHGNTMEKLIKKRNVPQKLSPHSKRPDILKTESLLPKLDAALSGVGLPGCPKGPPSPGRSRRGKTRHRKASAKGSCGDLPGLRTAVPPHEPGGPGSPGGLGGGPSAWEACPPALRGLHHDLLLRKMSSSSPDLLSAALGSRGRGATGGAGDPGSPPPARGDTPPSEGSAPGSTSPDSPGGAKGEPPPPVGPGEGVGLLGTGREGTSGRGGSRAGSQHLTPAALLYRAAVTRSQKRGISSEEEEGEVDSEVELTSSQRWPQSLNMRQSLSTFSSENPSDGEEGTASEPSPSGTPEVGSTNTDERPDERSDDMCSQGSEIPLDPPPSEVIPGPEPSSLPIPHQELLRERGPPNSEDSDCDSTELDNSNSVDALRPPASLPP

[4] = molecular target: T2, Inhibitor of nuclear factor kappa-B kinase subunit alpha (Homo sapiens) (UniProt O15111); assay: Selectivity interaction (KinomeScan (DiscoverX)) EUB0000666a CHUK
T2 sequence (whole entry): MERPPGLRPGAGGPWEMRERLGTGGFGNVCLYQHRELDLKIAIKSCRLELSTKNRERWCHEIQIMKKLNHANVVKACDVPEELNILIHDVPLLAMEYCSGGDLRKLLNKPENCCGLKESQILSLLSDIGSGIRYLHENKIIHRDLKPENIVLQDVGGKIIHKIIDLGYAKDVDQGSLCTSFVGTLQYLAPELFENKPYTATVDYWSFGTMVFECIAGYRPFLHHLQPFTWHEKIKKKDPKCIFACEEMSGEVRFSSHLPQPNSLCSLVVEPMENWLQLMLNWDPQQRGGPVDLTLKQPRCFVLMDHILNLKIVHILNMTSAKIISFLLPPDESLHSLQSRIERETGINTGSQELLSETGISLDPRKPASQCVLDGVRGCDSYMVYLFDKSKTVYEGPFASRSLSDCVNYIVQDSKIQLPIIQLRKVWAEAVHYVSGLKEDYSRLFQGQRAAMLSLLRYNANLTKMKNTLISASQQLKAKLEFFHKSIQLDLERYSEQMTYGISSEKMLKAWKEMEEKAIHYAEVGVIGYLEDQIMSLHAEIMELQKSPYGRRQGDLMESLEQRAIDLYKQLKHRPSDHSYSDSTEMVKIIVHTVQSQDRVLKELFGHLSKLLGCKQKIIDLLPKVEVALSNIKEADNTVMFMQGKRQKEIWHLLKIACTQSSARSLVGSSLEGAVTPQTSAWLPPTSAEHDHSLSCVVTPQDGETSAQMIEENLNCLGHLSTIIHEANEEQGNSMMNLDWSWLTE

Macrophage colony-stimulating factor 1 receptor (Homo sapiens), sequence (P07333 whole entry, canonical isoform): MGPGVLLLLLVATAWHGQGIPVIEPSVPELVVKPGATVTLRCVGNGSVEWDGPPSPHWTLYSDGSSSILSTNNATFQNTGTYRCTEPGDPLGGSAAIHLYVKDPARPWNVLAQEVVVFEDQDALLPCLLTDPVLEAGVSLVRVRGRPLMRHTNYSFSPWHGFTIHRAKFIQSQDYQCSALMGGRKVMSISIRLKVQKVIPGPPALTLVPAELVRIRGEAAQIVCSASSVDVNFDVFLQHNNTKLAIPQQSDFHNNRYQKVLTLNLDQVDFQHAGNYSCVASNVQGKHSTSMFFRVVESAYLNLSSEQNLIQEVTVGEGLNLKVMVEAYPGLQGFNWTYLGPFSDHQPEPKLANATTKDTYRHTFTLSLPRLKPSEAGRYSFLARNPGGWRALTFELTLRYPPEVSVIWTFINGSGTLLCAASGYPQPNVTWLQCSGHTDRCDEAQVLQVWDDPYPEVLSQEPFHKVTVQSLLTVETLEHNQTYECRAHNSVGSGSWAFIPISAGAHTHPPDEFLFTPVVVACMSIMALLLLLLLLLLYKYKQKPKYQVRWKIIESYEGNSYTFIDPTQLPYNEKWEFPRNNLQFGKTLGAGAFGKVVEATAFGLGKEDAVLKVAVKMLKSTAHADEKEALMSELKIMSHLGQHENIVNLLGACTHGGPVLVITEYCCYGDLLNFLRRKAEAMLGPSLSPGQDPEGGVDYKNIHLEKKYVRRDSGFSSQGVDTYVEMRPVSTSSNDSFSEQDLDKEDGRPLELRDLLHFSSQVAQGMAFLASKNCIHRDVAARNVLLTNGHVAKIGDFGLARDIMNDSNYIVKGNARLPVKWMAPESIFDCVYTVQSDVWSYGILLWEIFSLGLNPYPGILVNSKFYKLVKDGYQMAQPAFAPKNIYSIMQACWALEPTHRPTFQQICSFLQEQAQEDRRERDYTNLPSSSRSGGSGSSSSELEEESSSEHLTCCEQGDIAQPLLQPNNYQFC
Casein kinase I isoform delta, sequence (P48730 whole entry, looked up, canonical isoform): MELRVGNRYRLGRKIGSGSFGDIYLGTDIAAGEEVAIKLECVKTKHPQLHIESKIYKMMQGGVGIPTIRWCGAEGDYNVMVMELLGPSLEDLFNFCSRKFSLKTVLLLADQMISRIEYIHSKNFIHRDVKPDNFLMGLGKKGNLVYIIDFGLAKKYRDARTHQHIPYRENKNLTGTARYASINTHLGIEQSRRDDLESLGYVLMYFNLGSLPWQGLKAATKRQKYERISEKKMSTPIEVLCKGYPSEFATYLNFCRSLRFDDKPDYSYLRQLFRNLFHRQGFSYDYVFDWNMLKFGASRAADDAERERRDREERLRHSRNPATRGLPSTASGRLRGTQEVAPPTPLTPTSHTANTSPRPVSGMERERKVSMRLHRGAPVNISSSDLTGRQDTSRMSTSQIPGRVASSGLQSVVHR

% of control [1]: 6.6%
SMILES: CCN(CC)CCCCNc1ncc2cc(-c3cc(OC)cc(OC)c3)c(NC(=O)NC(C)(C)C)nc2n1

SMILES: COCC(=O)NC/C=C/c1ccc2ncnc(Nc3ccc(Oc4ccc(C)nc4)c(C)c3)c2c1 [CP-724714]
% of control [2]: 90%

SMILES: CN(C)CCOc1ccc(-c2nc(-c3ccncc3)c(-c3ccc4c(c3)CC/C4=N\O)[nH]2)cc1
% of control [3]: 49%

SMILES: O=C(NOC[C@H](O)CO)c1ccc(F)c(F)c1Nc1ccc(I)cc1F
% of control [4]: 100%
